The text below walks through data of article PMC7011943, “Discovery of novel PDE9A inhibitors with antioxidant activities for treatment of Alzheimer’s disease” (Journal of Enzyme Inhibition and Medicinal Chemistry, 2017).

The target in one data set is T1, PDE9A (Homo sapiens, UniProt O76083).
T1 construct: pET-PDE9A2 plasmid (catalytic domain, 181–506); made in house; host or cells: E. coli BL21 (Codonplus)
The experiment in a line: Enzymatic assay against PDE9A (3H-cGMP substrate). The class given is biochemical.

Data set [1] in a line: Antioxidant activity, oxygen radical absorbance capacity fluorescein (ORAC-FL) method. Conditions: for ORAC: samples 1–10 μM. Here is the method:
The antioxidant activity was determined by the modified oxygen radical absorbance capacity fluorescein (ORAC-FL) method[31]^,[32]. All the assays were diluted with 75 mM phosphate buffer (pH 7.4). The final reaction mixture was 200 μl. Test compound (20 μl) and fluorescein (120 μl, 150 nM final concentration) were placed in the wells of a black 96-well plate. After the mixture was incubated at 37 °C for 15 min, AAPH solution (60 μl, 12 mM final concentration) was added. The plate was placed in a Spectrafluor Plus plate reader (Tecan, Crailsheim, Germany) and the fluorescence was recorded every minute for 4 h with excitation at 485 nm and emission at 535 nm. Trolox was used as standard (1–8 μM, final concentration). A blank (FL + AAPH) in phosphate buffer instead of test compounds and trolox calibration were performed in each assay. The samples were measured at different concentration (1–10 μM). All the reaction mixture was prepared fourfold and at least three independent assays were performed for each sample. Fluorescence in time course was normalised on basis of the blank (without antioxidants). The ORAC-FL values were calculated as the reported method. ORAC-FL values were expressed as trolox equivalents.

Data set [2] has as its system PDE1B. Particulars: printed under head 'Inhibition of PDE1B at 1000 nM'; cited from earlier work.
The next data set concerns the target T2, PDE8A (Homo sapiens, UniProt O60658).
T2 construct: The catalytic domains of PDE1B (10–516) and PDE8A (480–820); made in house
Description: Enzymatic assay against PDE8A (3H-cAMP substrate). It is filed as biochemical.

The test system of a further data set is SH-SY5Y cells. The experiment in a line: In vitro cell viability assay (MTT). The class given is cell-based, human. Conditions: for cytotoxicity to SH-SY5Y cells (in words): 48 h, up to 100 μM. Here is the method:
(§1) SH-SY5Y cells were used for the cytotoxicity test by the MTT (3–(4, 5-dimethyl-2-thiazolyl)-2,5-diphenyl-2-H-tetrazoliumbromide) method. After incubation of the SH-SY5Y cells (5 × 10^3) in a 96-well plate for 24 h, compounds at concentrations of 10, 20, 40, 60, 80, and 100 μM, were added. After incubation for 48 h, MTT solution was added to each cell well and the system was further inoculated for 4 h at 37 °C. The purple formazan dye and 120 μl DMSO were added to the cells and the absorbance was measured at 570 nm using EnSpire-2300 Multimode Reader (PerkinElmer, Waltham, MA).

The target in data set [3] is T3, PDE1B (Homo sapiens, UniProt Q01064).
T3 construct: The catalytic domains of PDE1B (10–516) and PDE8A (480–820); made in house
The experiment in a line: Enzymatic assay against PDE1B (3H-cGMP substrate). The class given is biochemical. Conditions: 1000 nM (1 μM).
Description: (§2) The enzymatic activities of PDE1B and PDE8A were assayed by using ^3H-cGMP and ^3H-cAMP as the substrates, respectively, following the same procedure for PDE9A.

Data set [4] is described as follows: In vitro cell viability assay (MTT). The class given is cell-based, human. Particulars: human, SH-SY5Y cells, 48 h incubation, read-out: cellular viability. The method, then: as §1
In data set [5] the test system is PDE1B. Description: Enzymatic assay against PDE1B (3H-cGMP substrate). Conditions: estimated from inhibition at 1 μM. It is filed as biochemical.
Description: as §2
[6] abbreviates: Table 1 and text, means of three independent determinations, read-out: IC50±SD.

One may read the IC50 as the concentration that gives 50% inhibition. One may read the inhibition as the share of the control response that was lost under treatment. The viability is a read-out of living cells in per cent, often relative to untreated cells.

“Also recorded” adds a separate entry of the source. Like-named read-outs stand apart in the source and are kept apart here. Some results are limits rather than exact numbers.

T1 sequence (O76083 241-566): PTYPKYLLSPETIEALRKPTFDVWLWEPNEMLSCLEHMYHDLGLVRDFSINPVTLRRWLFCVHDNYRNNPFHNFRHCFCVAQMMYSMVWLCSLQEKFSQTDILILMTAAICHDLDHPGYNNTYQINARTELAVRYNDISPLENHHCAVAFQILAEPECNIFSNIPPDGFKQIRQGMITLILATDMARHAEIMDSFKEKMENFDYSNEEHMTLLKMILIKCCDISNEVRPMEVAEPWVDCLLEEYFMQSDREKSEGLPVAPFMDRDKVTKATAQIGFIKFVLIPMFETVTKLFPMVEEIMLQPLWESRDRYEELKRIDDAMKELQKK
T2 sequence (O60658 480-820): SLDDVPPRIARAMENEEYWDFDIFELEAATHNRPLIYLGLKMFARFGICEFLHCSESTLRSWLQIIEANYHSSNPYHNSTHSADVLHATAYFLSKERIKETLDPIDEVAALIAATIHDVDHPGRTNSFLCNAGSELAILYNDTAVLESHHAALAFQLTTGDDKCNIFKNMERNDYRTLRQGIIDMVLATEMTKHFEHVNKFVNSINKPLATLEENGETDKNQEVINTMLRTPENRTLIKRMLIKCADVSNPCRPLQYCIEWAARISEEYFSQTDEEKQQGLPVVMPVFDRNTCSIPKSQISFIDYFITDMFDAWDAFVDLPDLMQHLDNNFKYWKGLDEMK
T3 sequence (Q01064 10-516): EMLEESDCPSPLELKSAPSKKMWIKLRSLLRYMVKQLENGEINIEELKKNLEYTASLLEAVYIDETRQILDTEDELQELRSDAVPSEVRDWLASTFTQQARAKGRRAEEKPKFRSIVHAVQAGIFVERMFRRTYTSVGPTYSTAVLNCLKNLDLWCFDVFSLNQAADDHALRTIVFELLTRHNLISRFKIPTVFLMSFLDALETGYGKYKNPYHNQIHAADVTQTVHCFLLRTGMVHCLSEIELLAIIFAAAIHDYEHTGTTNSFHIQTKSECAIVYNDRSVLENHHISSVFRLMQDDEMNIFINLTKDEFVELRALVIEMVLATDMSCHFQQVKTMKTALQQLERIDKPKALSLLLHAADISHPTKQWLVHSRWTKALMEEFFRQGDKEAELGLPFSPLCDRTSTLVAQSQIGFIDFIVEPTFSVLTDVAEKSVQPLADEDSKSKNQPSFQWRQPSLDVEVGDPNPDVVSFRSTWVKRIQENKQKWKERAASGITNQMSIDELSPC
Description for PDE8A: as §2
Description for PDE9A: The E. coli cells carrying pET-PDE9A2 was grown in LB medium (containing 100 μg/ml ampicillin and 0.4% glucose) at 37 °C until OD600 = 0.6–0.8. 0.1 mM iso-propyl-β-D-thiogalactopyranoside was added to induce the PDE9A2 protein expression at 15 °C for 20 h. PDE9A was purified on the nickel nitriloacetic acid (Ni-NTA) column (Qiagen, Hilden, Germany) and eluted with 0.25 M imidazole. The concentration of PDE9A was estimated by the absorbance at 280 nm (calculated using ProtParam software, http://web.expasy.org/protparam). A typical batch of purification yielded 30–60 mg PDE9A2 protein from a 0.5 l cell culture. The PDE9A2 proteins had purity greater than 90% as shown by sodium dodecyl sulphate polyacrylamide gel electrophoresis (SDS-PAGE).
The enzymatic activities of the catalytic domain of PDE9A2 were measured by using ^3H-cGMP as the substrate and the assay buffer of 50 mM Tris-HCl (pH 8.0), 10 mM MgCl2, and 1 mM DTT. Each assay used ^3H-cGMP 20,000–30,000 cpm. The reaction was carried out at room temperature (25 °C) for 15 min and then terminated by addition of 0.2 M ZnSO4. The reaction product was precipitated by 0.2 N Ba(OH)2, whereas unreacted ^3H-cGMP remained in the supernatant. […] At least eight concentrations of inhibitors were measured parallel in each measurement, resulting an inhibition curve to calculate the IC50 value of inhibitors by nonlinear regression. Each measurement was repeated at least three times. The mean and standard deviation statistics of these three IC50 values were used as the final IC50 value and the corresponding SD.

Consider `COc1ccc(/C=C/C(=O)N[C@H](C)c2nc3c(cnn3C3CCCC3)c(=O)[nH]2)cc1O` [Compound 1d, (R, E)-N-(1–(1-cyclopentyl-4-oxo-4,5-dihydro-1H-pyrazolo[3,4-d]pyrimidin-6-yl)ethyl)-3–(3-hydroxy-4-methoxyphenyl)acrylamide], for which the IC50 on PDE9A (setting [6]) was 83 ± 11 nM. Moreover, the ORAC in data set [1] came out at 1.26 trolox equivalents.
For the compound `COc1ccc(/C=C/C(=O)N[C@H](C)c2nc3c(cnn3C3CCCC3)c(=O)[nH]2)cc1OC` [Compound 1c, (R, E)-N-(1–(1-cyclopentyl-4-oxo-4,5-dihydro-1H-pyrazolo[3,4-d]pyrimidin-6-yl)ethyl)-3– (3,4-dimethoxyphenyl)acrylamide], at PDE9A (setting [6]), the IC50 is 65 ± 4 nM. Besides, in data set [1], the “ORAC-FL value / antioxidant activity (in words)” value is “low ORAC-FL values” and the ORAC was determined as 0.23 trolox equivalents.
As for `C[C@@H](NC(=O)Cc1ccc(O)c(O)c1)c1nc2c(cnn2C2CCCC2)c(=O)[nH]1` [Compound 1l, (R, E)-N-(1–(1-cyclopentyl-4-oxo-4,5-dihydro-1H-pyrazolo[3,4-d]pyrimidin-6-yl)ethyl)-2–(3,4-dihydroxyphenyl)acetamide], the IC50 at PDE9A (setting [6]) worked out at 57 ± 4 nM. This compound also registered an ORAC in data set [1] of 2.6 trolox equivalents.
Take `C[C@@H](NC(=O)/C=C/c1ccc(O)cc1)c1nc2c(cnn2C2CCCC2)c(=O)[nH]1` [Compound 1g, (R, E)-N-(1–(1-cyclopentyl-4-oxo-4,5-dihydro-1H-pyrazolo[3,4-d]pyrimidin-6-yl)ethyl)-3–(4-hydroxyphenyl)acrylamide]: the IC50 on PDE9A (setting [6]) came out at 63 ± 3 nM. Besides, in data set [1], the ORAC is recorded as 2.9 trolox equivalents.
Consider `C[C@@H](NC(=O)/C=C/c1ccc(C(F)(F)F)cc1)c1nc2c(cnn2C2CCCC2)c(=O)[nH]1` [Compound 1k, (R, E)-N-(1–(1-cyclopentyl-4-oxo-4,5-dihydro-1H-pyrazolo[3,4-d]pyrimidin-6-yl)ethyl)-3–(4-(trifluoromethyl)phenyl)acrylamide], for which, on PDE9A (setting [6]), the IC50 amounted to 130 ± 6 nM. For the same compound, in data set [1], the “ORAC-FL value / antioxidant activity (in words)” value is “low ORAC-FL values” and the ORAC was 0.02 trolox equivalents.
Take `C[C@@H]1CN(Cc2ncccn2)C[C@H]1c1nc2c(cnn2C2CCOCC2)c(=O)[nH]1` [PF-04447943, 6-[(3S,4S)-4-Methyl-1-(pyrimidin-2-ylmethyl)pyrrolidin-3-yl]-1-(tetrahydro-2H-pyran-4-yl)-1,5-dihydro-4H-pyrazolo[3,4-d]pyrimidin-4-one]: the IC50 with PDE1B [2] was 1.39 µM.
In the case of `COc1cc(/C=C/C(=O)N[C@H](C)c2nc3c(cnn3C3CCCC3)c(=O)[nH]2)ccc1O` [Compound 1a, (R, E)-N-(1–(1-cyclopentyl-4-oxo-4,5-dihydro-1H-pyrazolo[3,4-d]pyrimidin-6-yl)ethyl)-3–(4-hydroxy-3-methoxyphenyl)acrylamide], the IC50 on PDE9A (setting [6]) amounted to 126 ± 15 nM. Further, the ORAC in data set [1] amounted to 2.4 trolox equivalents.
Regarding `COc1cccc(/C=C/C(=O)N[C@H](C)c2nc3c(cnn3C3CCCC3)c(=O)[nH]2)c1` [Compound 1f, (R, E)-N-(1–(1-cyclopentyl-4-oxo-4,5-dihydro-1H-pyrazolo[3,4-d]pyrimidin-6-yl)ethyl)-3–(3-methoxyphenyl)acrylamide], on PDE9A (setting [6]), the IC50 worked out at 190 ± 7 nM. In addition, in data set [1], the “ORAC-FL value / antioxidant activity (in words)” value was “low ORAC-FL values” and the ORAC is 0.12 trolox equivalents.
As to `C[C@@H](NC(=O)CCCC[C@@H]1CCSS1)c1nc2c(cnn2C2CCCC2)c(=O)[nH]1` [Compound 2, N-((1N)-1–(1-cyclopentyl-4-oxo-3a, 4,5,6-tetrahydro-1H-pyrazolo[3,4-d]pyrimi–din-6-yl)ethyl)-5-((R)-1,2-dithiolan-3-yl)pentanamide], at PDE8A, at 10 µM the inhibition was 9%. For the same compound, in the data set on SH-SY5Y cells (100 μM, 48 h incubation), the cellular viability result is “no significant effect on cell viability”. The “cytotoxicity to SH-SY5Y cells (in words)” value in the data set with SH-SY5Y cells is “not toxic”. This compound registered an inhibition at 1 µM on PDE1B [3] of 59%. In data set [1], the “ORAC-FL value / antioxidant activity (in words)” value is “low antioxidant activity” and the ORAC came out at 0.28 trolox equivalents.
For `Cc1c(C)c2c(c(C)c1O)CCC(C)(C(=O)N[C@H](C)c1nc3c(cnn3C3CCCC3)c(=O)[nH]1)O2` (stereo partly drawn) [Compound 3, N-((R)-1–(1-cyclopentyl-4-oxo-4,5-dihydro-1H-pyrazolo[3,4-d]pyrimidin-6-yl)ethyl) -6-hydroxy-2,5,7,8-tetramethylchromane-2-carboxamide], the IC50 on PDE9A (setting [6]) is above 500 nM. In data set [1], this compound displayed an ORAC of 0.24 trolox equivalents.
In data set [1], `COc1cc(/C=C/C(=O)O)ccc1O` [Ferulic acid, reference compound] came in with an ORAC of 1.6 trolox equivalents.
For the compound `C[C@@H](NC(=O)/C=C/c1cccc(O)c1)c1nc2c(cnn2C2CCCC2)c(=O)[nH]1` [Compound 1h, (R, E)-N-(1–(1-cyclopentyl-4-oxo-4,5-dihydro-1H-pyrazolo[3,4-d]pyrimidin-6-yl)ethyl)-3–(3-hydroxyphenyl)acrylamide], the IC50 is 56 ± 7 nM on PDE9A (setting [6]) and 56 ± 1 nM on PDE9A (Table 2, read-out: IC50 (nM) of PDE9A). The inhibition at 10 µM at PDE8A came out at 10%. Besides, the “fold of selectivity against PDE9 over PDE8A” value at PDE8A (estimated from inhibition at 10 μM) is listed as above 250 fold. The viability at 48 h, 40 µM in data set [4] (40 μM) was around 90%. For the same compound, the viability at 48 h, 100 µM in data set [4] (100 μM) is around 70%. For the same compound, the “cytotoxicity to SH-SY5Y cells (in words)” value in the data set on SH-SY5Y cells is listed as “no cytotoxicity; also recorded: not toxic”. Besides, testing at 1 µM against PDE1B [3] gave an inhibition of 13%. The “fold of selectivity against PDE9 over PDE1B” value with PDE1B [5] is on record as above 25 fold. Also, the ORAC in data set [1] came to 3.3 trolox equivalents.
Take `C[C@@H](NC(=O)/C=C/c1cccc(Cl)c1)c1nc2c(cnn2C2CCCC2)c(=O)[nH]1` [Compound 1j, (R, E)-N-3–(3-chlorophenyl)-N-(1–(1-cyclopentyl-4-oxo-4,5-dihydro-1H-pyrazolo[3,4-d]pyrimidin-6-yl)ethyl)acrylamide]: the IC50 at PDE9A (setting [6]) amounted to 186 ± 7 nM. Besides, in data set [1], the “ORAC-FL value / antioxidant activity (in words)” value was “low ORAC-FL values” and the ORAC was 0.08 trolox equivalents.
As for `C[C@@H](NC(=O)/C=C/c1ccc(N(C)C)cc1)c1nc2c(cnn2C2CCCC2)c(=O)[nH]1` [Compound 1i, (R, E)-N-(1–(1-cyclopentyl-4-oxo-4,5-dihydro-1H-pyrazolo[3,4-d]pyrimidin-6-yl)ethyl)-3–(4-(dimethylamino)phenyl)acrylamide], the IC50 at PDE9A (setting [6]) is 133 ± 22 nM. The compound further gave an ORAC in data set [1] of 1.00 trolox equivalents.
On to `C[C@@H](NC(=O)/C=C/c1ccc(O)c(O)c1)c1nc2c(cnn2C2CCCC2)c(=O)[nH]1` [Compound 1b, (R, E)-N-(1–(1-cyclopentyl-4-oxo-4,5-dihydro-1H-pyrazolo[3,4-d]pyrimidin-6-yl)ethyl)-3–(3,4-dihydroxyphenyl)acrylamide], for which, at PDE9A (setting [6]), the IC50 came out at 64 ± 2 nM. The ORAC in data set [1] amounted to 2.5 trolox equivalents.
